Read-outs that look alike come from different tables or passages of the source.
Legend:
IKZF2 = biological target: T1, IKZF2 (Homo sapiens, UniProt Q96SW2+Q9UKS7); experiment: IKZF2 degradation assay, HiBiT method (Nano-Glo HiBiT Lytic Assay); type: cell-based; details: JURKAT.21 (IKZF2-HiBiT) cells
T1 construct: endogenously expressing IKZF2 with HiBiT fusion tag via CRISPR; host or cells: JURKAT.21 (IKZF2-HiBiT), CRISPR knock-in
Description: Example 61 IKZF2 Degradation Assay
RPMI 1640 Medium without phenol red and fetal bovine serum (FBS) were purchased from Gibco (Grand Island, NY, USA). Nano-Glo® HiBiT Lytic Assay System was purchased from Promega (Madison, WI, USA). JURKAT.21 (IKZF2-HiBiT) cell line, endogenously expressing IKZF2 with HiBiT fusion tag via CRISPR, was purchasing from Synthego (Menlo Park, CA, USA). Cell culture flasks and 384-well microplates were acquired from VWR (Radnor, PA, USA).
IKZF2 Degradation Analysis
(§1) IKZF2 degradation was determined based on quantification of luminescent signal using Nano-Glo® HiBiT Lytic Assay kit. Test compounds were added to the 384-well plate from a top concentration of 10 µM with 11 points, half log titration in duplicates. JURKAT.216 cells were added into 384-well plates at a cell density of 5000 cells per well. The plates were kept at 37° C. with 5% CO2 for 6 or 24 hours. The cells treated in the absence of the test compound were the negative control and the cells without Nano-Glo® HiBiT Lytic reagent were the positive control. After 6-hour or 24-hour incubation, Nano-Glo® HiBiT Lytic Assay reagents were added to the cells. Luminescence was acquired on EnVision™ Multilabel Reader (PerkinElmer, Santa Clara, CA, USA).

GSPT1 = biological target: T2, GSPT1 (Homo sapiens, UniProt P15170+Q96SW2); experiment: GSPT1 degradation assay, HiBiT method (Nano-Glo HiBiT Lytic Assay); type: cell-based; details: 293T.114 (HiBiT-GSPT1) cells, 6 hours
T2 construct: endogenously expressing GSPT1 with HiBiT fusion tag via CRISPR; endogenous in cells; host or cells: 293T.114 (HiBiT-GSPT1), CRISPR knock-in, generated in house
Method: Example 62 GSPT1 Degradation Assay
DMEM no-phenol red medium and fetal bovine serum (FBS) were purchased from Gibco (Grand Island, NY, USA). Nano-Glo® HiBiT Lytic Assay System was purchased from Promega (Madison, WI, USA). 293T.114 (HiBiT-GSPT1) cell line was generated in house, endogenously expressing GSPT1 with HiBiT fusion tag via CRISPR. Cell culture flasks and 384-well microplates were acquired from VWR (Radnor, PA, USA).
GSPT1 Degradation Analysis
as §1, with “GSPT1” for “IKZF2”, “293T.114” for “JURKAT.216”, “6000” for “5000”, “6” for “6 or 24”, “6-hour” for “6-hour or 24-hour”, “designated wells.” for “cells.”

[1] = 6 hours, read-out: HiBiT-Degradation JURKAT.21 IKZF2 6 hours DC50
[2] = 6 hours, read-out: HiBiT-Degradation JURKAT.21 IKZF2 6 hours Emax
[3] = 24 hours, read-out: HiBiT-Degradation JURKAT.21 IKZF2 24 hours DC50
[4] = 24 hours, read-out: HiBiT-Degradation JURKAT.21 IKZF2 24 hours Emax

T2 sequence (P15170 whole entry, the tested form may be a part): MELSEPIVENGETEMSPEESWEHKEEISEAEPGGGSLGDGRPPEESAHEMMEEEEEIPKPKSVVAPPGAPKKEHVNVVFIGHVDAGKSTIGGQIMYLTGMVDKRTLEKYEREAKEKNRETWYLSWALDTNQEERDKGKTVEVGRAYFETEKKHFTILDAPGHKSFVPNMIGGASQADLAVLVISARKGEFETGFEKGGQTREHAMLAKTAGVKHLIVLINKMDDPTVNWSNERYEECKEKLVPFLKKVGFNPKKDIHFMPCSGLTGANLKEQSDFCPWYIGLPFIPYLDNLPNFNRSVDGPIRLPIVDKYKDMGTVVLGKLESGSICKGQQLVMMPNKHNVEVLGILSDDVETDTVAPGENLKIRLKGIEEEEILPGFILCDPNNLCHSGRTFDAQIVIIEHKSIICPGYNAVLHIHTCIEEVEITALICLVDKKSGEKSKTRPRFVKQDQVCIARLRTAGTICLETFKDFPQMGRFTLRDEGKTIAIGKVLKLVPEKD
T2 sequence (Q96SW2 whole entry, the tested form may be a part): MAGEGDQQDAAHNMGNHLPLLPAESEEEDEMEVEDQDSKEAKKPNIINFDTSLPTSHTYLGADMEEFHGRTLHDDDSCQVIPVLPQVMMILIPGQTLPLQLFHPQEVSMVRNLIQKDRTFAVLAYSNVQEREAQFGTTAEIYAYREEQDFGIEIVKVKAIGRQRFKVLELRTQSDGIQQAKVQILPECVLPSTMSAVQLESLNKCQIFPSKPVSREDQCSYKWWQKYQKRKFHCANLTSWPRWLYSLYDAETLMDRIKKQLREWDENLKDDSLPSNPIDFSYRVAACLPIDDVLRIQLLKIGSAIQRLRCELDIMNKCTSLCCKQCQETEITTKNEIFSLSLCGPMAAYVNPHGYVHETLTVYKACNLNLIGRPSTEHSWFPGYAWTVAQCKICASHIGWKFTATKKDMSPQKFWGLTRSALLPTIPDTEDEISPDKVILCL
T2 sequence (Q16531 whole entry partner, the tested form may be a part): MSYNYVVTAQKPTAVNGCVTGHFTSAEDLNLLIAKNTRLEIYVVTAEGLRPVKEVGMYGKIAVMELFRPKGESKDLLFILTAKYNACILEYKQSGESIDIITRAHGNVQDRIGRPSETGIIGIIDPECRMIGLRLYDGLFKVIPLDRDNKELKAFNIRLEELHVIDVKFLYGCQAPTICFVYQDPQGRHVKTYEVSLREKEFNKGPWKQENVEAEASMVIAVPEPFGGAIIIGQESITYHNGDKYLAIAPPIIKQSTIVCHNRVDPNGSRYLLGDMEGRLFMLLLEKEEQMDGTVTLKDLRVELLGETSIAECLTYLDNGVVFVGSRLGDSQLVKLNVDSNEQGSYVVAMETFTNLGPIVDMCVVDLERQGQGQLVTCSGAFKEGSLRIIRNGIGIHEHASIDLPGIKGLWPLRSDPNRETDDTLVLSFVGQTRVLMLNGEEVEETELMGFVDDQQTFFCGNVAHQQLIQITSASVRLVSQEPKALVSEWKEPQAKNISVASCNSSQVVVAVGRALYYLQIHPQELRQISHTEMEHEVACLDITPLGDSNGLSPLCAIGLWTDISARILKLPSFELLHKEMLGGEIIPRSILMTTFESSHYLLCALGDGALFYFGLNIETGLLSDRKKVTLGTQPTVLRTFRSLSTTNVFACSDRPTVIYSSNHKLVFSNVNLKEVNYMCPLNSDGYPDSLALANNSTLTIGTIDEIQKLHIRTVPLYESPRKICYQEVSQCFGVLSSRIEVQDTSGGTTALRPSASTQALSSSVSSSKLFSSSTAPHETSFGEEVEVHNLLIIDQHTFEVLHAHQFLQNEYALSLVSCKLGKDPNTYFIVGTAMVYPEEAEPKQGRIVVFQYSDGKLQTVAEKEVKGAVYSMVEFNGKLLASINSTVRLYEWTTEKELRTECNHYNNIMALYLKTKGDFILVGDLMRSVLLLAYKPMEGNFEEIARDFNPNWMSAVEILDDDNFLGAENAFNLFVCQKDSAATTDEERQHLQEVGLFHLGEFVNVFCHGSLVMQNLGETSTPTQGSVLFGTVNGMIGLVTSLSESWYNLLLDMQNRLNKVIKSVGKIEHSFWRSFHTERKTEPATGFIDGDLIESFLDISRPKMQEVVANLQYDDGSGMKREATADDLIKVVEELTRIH
T1 sequence (Q9UKS7 whole entry, the tested form may be a part): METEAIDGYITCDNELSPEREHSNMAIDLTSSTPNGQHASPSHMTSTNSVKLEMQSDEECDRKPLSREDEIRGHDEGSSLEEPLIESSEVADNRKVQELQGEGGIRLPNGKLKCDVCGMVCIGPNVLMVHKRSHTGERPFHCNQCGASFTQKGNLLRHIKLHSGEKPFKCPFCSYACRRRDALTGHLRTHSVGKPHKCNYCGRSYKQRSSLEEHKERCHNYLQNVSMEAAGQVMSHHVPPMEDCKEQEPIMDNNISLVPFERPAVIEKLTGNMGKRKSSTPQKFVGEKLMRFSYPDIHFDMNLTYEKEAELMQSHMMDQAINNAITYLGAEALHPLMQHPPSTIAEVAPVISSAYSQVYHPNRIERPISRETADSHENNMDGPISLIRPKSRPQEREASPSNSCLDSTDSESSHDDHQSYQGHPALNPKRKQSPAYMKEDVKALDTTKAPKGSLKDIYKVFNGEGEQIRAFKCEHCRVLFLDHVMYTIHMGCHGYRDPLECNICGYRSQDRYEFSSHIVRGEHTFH
T1 sequence (Q96SW2 whole entry, the tested form may be a part): as the sequence (Q96SW2 whole entry, the tested form may be a part) above
T1 sequence (Q16531 whole entry partner, the tested form may be a part): as the sequence (Q16531 whole entry partner, the tested form may be a part) above

Structure (SMILES) | DC50 (IKZF2; [1]) [µM] | Emax (IKZF2; [2]) [%] | DC50 (GSPT1) [µM] | Emax (GSPT1) [%] | DC50 (IKZF2; [3]) [µM] | Emax (IKZF2; [4]) [%]
O=C1CCC(N2C(=O)c3ccc(OC4CCCC[C@@H]4N4CC(Oc5cccc(F)c5)C4)c4cccc2c34)C(=O)N1 (stereo in doubt) [Compound 117, 3-[5-[(1R)-2-[3-(3-fluorophenoxy)azetidin-1-yl]cyclohexoxy]-2-oxo-benzo[cd]indol-1-yl]piperidine-2,6-dione] | > 10 | 60 to 95 |  |  |  | 
Cc1cc(C)nc(-c2ccc3c4c(cccc24)N(C2CCC(=O)NC2=O)C3=O)n1 (centres unmarked) [Compound 106, 3-[5-(4,6-dimethylpyrimidin-2-yl)-2-oxo-benzo[cd]indol-1-yl]piperidine-2,6-dione] | < 0.5 | 45 to 60 | > 10 | 60 to 95 | < 0.5 | < 45
CC(NC(=O)c1ccc2c3c(ccnc13)N(C1CCC(=O)NC1=O)C2=O)c1ccccc1 (centres unmarked) [Compound 122, 27-(2,6-dioxo-3-piperidyl)-20-oxo-N-(1-phenylethyl)-24,27-diazatricyclododeca-6,8(15),9(24),13(16),14(17)-pentaene-14-carboxamide] | > 10 | 60 to 95 | > 10 | 60 to 95 |  | 
O=C1CCC(N2C(=O)c3ccc(C4(F)CCN(Cc5ccccc5)CC4)c4nccc2c34)C(=O)N1 (centres unmarked) [Compound 123, 3-[18-(1-benzyl-4-fluoro-4-piperidyl)-24-oxo-27,30-diazatricyclododeca-5(17),6(18),7(19),8(27),20-pentaen-30-yl]piperidine-2,6-dione] |  |  | > 10 | 60 to 95 |  | 
COc1ccccc1C(C)NC(=O)c1ccc2c3c(cccc13)N(C1CCC(=O)NC1=O)C2=O (centres unmarked) [Compound 109, 1-(2,6-dioxopiperidin-3-yl)-N-(1-(2-methoxyphenyl)ethyl)-2-oxo-1,2-dihydrobenzo[cd]indole-5-carboxamide] |  |  | > 10 | 60 to 95 |  | 
CN1CCN(c2ccc3c4c(ccnc24)N(C2CCC(=O)NC2=O)C3=O)CC1 (centres unmarked) [Compound 121] | > 10 | > 95 | > 10 | 60 to 95 |  | 
O=C1CCC(N2C(=O)c3ccc(C4CCN(Cc5cccc(S(=O)(=O)N6CCOCC6)c5)CC4)c4nccc2c34)C(=O)N1 (centres unmarked) [Compound 128, 3-[21-[1-[(3-morpholinosulfonylphenyl)methyl]-4-piperidyl]-29-oxo-31,35-diazatricyclododeca-3(21),4(22),5(23),6(31),24-pentaen-35-yl]piperidine-2,6-dione] | > 10 | 60 to 95 | > 10 | 60 to 95 | > 10 | 60 to 95
O=C1CCC(N2C(=O)c3ccc(N4CCN(Cc5ccccc5)CC4)c4nccc2c34)C(=O)N1 (centres unmarked) [Compound 120, 3-[18-(4-benzylpiperazin-1-yl)-24-oxo-26,30-diazatricyclododeca-5,7(19),8(26),17(20),18(21)-pentaen-30-yl]piperidine-2,6-dione] | > 10 | 60 to 95 | > 10 | 60 to 95 |  | 
CN1CC(F)(c2ccc3c4c(cccc24)N(C2CCC(=O)NC2=O)C3=O)C1 (centres unmarked) [Compound 101] | > 10 | 60 to 95 | > 10 | > 95 |  | 
O=C1CCC(N2C(=O)c3ccc(C(=O)NC(c4ccccc4)C(F)(F)F)c4cccc2c34)C(=O)N1 (centres unmarked) [Compound 110, 1-(2,6-dioxopiperidin-3-yl)-2-oxo-N-(2,2,2-trifluoro-1-phenylethyl)-1,2-dihydrobenzo[cd]indole-5-carboxamide] | > 10 | 60 to 95 |  |  |  | 
CN1CCC(c2ccc3c4c(cccc24)N(C2CCC(=O)NC2=O)C3=O)C1 (centres unmarked) [Compound 98, 3-[5-(1-methylpyrrolidin-3-yl)-2-oxo-benzo[cd]indol-1-yl]piperidine-2,6-dione] | > 10 | 60 to 95 | > 10 | > 95 |  | 
CC(C)NC(=O)c1ccc2c3c(cccc13)N(C1CCC(=O)NC1=O)C2=O (centres unmarked) [Compound 112, 1-(2,6-dioxopiperidin-3-yl)-N-isopropyl-2-oxo-1,2-dihydrobenzo[cd]indole-5-carboxamide] | > 10 | 60 to 95 | > 10 | 60 to 95 |  | 
COc1ncc(CN2CCC(c3ccc4c5c(ccnc35)N(C3CCC(=O)NC3=O)C4=O)CC2)cn1 (centres unmarked) [Compound 127, 3-[14-[1-[(2-methoxypyrimidin-5-yl)methyl]-4-piperidyl]-24-oxo-26,31-diazatricyclododeca-1(14),2(15),3(16),4(26),18-pentaen-31-yl]piperidine-2,6-dione] | > 10 | 60 to 95 | > 10 | > 95 |  | 
CN1CCN(c2ccc3c4c(cccc24)N(C2CCC(=O)NC2=O)C3=O)CC1 (centres unmarked) [Compound 114, 3-[5-(4-methylpiperazin-1-yl)-2-oxo-benzo[cd]indol-1-yl]piperidine-2,6-dione] |  |  | > 10 | 60 to 95 |  | 

Second part, the compound after the results:

DC50 (IKZF2; [1]) [µM] | Emax (IKZF2; [2]) [%] | DC50 (GSPT1) [µM] | Emax (GSPT1) [%] | DC50 (IKZF2; [3]) [µM] | Emax (IKZF2; [4]) [%] | Structure (SMILES)
> 10 | 60 to 95 | > 10 | > 95 |  |  | CN1CC(Cc2ccc3c4c(cccc24)N(C2CCC(=O)NC2=O)C3=O)C1 (centres unmarked) [Compound 105, 3-[5-[(1-methylazetidin-3-yl)methyl]-2-oxo-benzo[cd]indol-1-yl]piperidine-2,6-dione]
> 10 | 60 to 95 | > 10 | > 95 |  |  | O=C1CCC(N2C(=O)c3ccc(C4CCN(Cc5ccccc5)C4)c4cccc2c34)C(=O)N1 (centres unmarked) [Compound 99]
> 10 | 60 to 95 | > 10 | 60 to 95 |  |  | O=C1CCC(N2C(=O)c3ccc(CC4CN(Cc5ccccc5)C4)c4cccc2c34)C(=O)N1 (centres unmarked) [Compound 103, 3-[5-[(1-benzylazetidin-3-yl)methyl]-2-oxo-benzo[cd]indol-1-yl]piperidine-2,6-dione]
> 10 | 60 to 95 |  |  |  |  | O=C1CCC(N2C(=O)c3ccc(C4CCN(Cc5ccccc5)CC4)c4nccc2c34)C(=O)N1 (centres unmarked) [Compound 126, 3-[17-(1-benzyl-4-piperidyl)-25-oxo-27,30-diazatricyclododeca-5(17),6(18),7(19),8(27),20-pentaen-30-yl]piperidine-2,6-dione]
 |  | > 10 | 60 to 95 |  |  | CN(c1ccc2c3c(cccc13)N(C1CCC(=O)NC1=O)C2=O)C1CCN(Cc2ccccc2)C1 (centres unmarked) [Compound 116]
> 10 | 60 to 95 | > 10 | > 95 |  |  | O=C1CCC(N2C(=O)c3ccc(C4(F)CN(Cc5ccccc5)C4)c4cccc2c34)C(=O)N1 (centres unmarked) [Compound 100, 3-[5-(1-benzyl-3-fluoro-azetidin-3-yl)-2-oxo-benzo[cd]indol-1-yl]piperidine-2,6-dione]
> 10 | 60 to 95 | > 10 | 60 to 95 |  |  | CC(C)(C)OC(=O)N1CC(Cc2ccc3c4c(cccc24)N(C2CCC(=O)NC2=O)C3=O)C1 (centres unmarked) [Compound 104, Tert-butyl 3-[[1-(2,6-dioxo-3-piperidyl)-2-oxo-benzo[cd]indol-5-yl]methyl]azetidine-1-carboxylate]
> 10 | 60 to 95 | > 10 | 60 to 95 |  |  | CC(NC(=O)c1ccc2c3c(cccc13)N(C1CCC(=O)NC1=O)C2=O)c1ccccc1 (centres unmarked) [Compound 107, 1-(2,6-dioxo-3-piperidyl)-2-oxo-N-(1-phenylethyl)benzo[cd]indole-5-carboxamide]
> 10 | 60 to 95 |  |  |  |  | O=C1CCC(N2C(=O)c3ccc(N4CCN(Cc5ccccc5)CC4)c4cccc2c34)C(=O)N1 (centres unmarked) [Compound 115]

— patent publication US20230339902A1, “TRICYCLIC LIGANDS FOR DEGRADATION OF IKZF2 OR IKZF4” (C4 Therapeutics, Inc., priority 2020, published 2023)
